24 compounds from patent US20230117592A1 (SRI International, priority 2019, published 2023) can be followed below.

Experiment [1] addresses T1, 5-LOX (Homo sapiens, UniProt P09917).
T1 sequence (P09917 1-674): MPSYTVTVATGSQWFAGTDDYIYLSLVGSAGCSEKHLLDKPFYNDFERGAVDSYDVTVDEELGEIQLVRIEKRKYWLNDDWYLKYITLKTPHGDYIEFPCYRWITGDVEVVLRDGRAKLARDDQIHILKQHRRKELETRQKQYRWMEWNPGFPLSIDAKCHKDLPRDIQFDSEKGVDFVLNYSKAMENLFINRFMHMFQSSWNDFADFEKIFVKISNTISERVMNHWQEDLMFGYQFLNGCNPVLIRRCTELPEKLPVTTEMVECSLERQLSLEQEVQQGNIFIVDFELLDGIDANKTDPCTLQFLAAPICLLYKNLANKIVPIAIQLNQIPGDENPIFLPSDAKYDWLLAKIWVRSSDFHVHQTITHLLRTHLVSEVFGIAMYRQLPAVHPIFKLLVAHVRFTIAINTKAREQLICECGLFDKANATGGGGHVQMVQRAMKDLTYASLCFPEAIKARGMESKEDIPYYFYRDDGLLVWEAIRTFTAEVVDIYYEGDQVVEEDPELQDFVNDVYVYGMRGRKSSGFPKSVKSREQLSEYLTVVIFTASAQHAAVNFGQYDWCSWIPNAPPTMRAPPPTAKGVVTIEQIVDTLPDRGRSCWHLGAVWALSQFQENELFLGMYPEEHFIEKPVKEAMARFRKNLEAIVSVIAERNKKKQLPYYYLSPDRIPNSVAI
Briefly: 5-LOX fluorescent assay (in vitro lipoxygenase inhibition). The following applies: recombinant 5-LOX cell lysate, 20 μM AA, DHR123 fluorescence; several values in a cell = repeat determinations; read-out: IC50 (μM) values for in vitro lipoxygenase inhibition, 5-LOX. It counts as biochemical. How it is done: 5-LOX FI assay Fluorescent Assay
The enzyme assay (100 μL) contained 50 mM Tris, pH 7.5, 0.1 mM EDTA, 0.3 mM CaCl2, 20 μM AA, 100 μM ATP, 1 μM DHR123, and recombinant 5-LOX cell lysate (0.5 μL/100 μL). Inhibitors (dissolved in DMSO) were plated at 1 μL into 96-well assay microplates followed by a 40 μL addition of a solution containing 5-LOX enzyme. Enzyme was pre-incubated with compounds for 15 mins. The assay was initiated by the addition of a 40 μL substrate solution containing AA and ATP, and 20 μL addition of a solution containing DHR123. […] Percent inhibition was calculated for each compound dose for IC50 curve fitting using 4 Parameter Logistic Model or Sigmoidal Dose-Response Model.

Experiment [2] concerns the target T2, 12-LOX (Homo sapiens, UniProt P18054).
T2 sequence (P18054 1-663): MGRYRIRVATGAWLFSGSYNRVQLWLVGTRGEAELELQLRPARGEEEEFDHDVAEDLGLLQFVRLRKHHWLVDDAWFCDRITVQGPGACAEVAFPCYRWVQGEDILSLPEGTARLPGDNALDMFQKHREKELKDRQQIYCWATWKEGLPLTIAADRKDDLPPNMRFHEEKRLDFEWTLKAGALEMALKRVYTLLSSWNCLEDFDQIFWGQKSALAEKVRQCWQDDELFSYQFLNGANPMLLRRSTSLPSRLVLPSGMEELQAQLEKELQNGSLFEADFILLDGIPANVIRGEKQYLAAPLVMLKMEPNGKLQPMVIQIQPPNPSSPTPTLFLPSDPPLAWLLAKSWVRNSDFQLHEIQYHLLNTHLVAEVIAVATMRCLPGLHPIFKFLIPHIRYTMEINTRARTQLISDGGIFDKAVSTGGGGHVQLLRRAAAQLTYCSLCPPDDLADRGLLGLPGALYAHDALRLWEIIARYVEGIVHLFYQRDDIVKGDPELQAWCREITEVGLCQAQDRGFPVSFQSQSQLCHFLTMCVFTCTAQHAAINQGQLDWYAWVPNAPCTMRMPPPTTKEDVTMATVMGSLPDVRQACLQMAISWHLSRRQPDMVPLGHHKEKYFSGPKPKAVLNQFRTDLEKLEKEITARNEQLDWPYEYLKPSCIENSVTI
Briefly: 12-LOX fluorescent assay (in vitro lipoxygenase inhibition). It counts as biochemical. As to the method:
12-LOX/15-LOX Fluorescent Assay
The enzyme assay (100 ul) contained 50 mM Tris, pH 7.5, 0.05% Tween-20, 20 μM AA/LA, 1 μM DHR123, and 100 nM recombinant 12-LOX enzyme/50 nM recombinant 15-LOX enzyme. Inhibitors (dissolved in DMSO) were plated at 1 μL into 96-well assay microplates followed by a 40 μL addition of a solution containing 12-LOX/15-LOX enzyme. Enzyme was pre-incubated with compounds for 15 mins. The assay was initiated by the addition of a 40 μL substrate solution containing AA/LA, and 20μL addition of a solution containing DHR123. […] Percent inhibition was calculated for each compound dose for IC50 curve fitting using 4 Parameter Logistic Model or Sigmoidal Dose-Response Model.

[3] abbreviates: 100 nM recombinant 12-LOX, 20 μM AA, DHR123 fluorescence, several values in a cell = repeat determinations, read-out: IC50 (μM) values for in vitro lipoxygenase inhibition, 12-LOX.

Several values for one entry are separate records, joined by “and”; a condition that tells them apart may be missing. Equal entries are not always repeated. Where two headings read alike, the source gives them in different places.

Consider `Fc1ccc(Nc2ccc(NCC3(CN4CCOCC4)COC3)c(C(F)(F)F)c2)cc1`, for which the figures for the IC50 in experiment [1] and in experiment [2] (setting [3]) were 0.06 µM and 0.04 µM, respectively.

In the case of `COc1ccc(CNc2cccc(N)c2OCCN(C)C)cc1` [SS20308-0025-01, 2-(2-(dimethylamino)ethoxy)-N^1-(4-methoxybenzyl)benzene-1,3-diamine], the IC50 in experiment [1] was 7.31 µM; in experiment [2] (setting [3]), 1.29 µM.

Take `CCOC(=O)c1ccc(Nc2ccccc2OCCn2cncn2)cc1` [SS20308-0033-01, ethyl 4-(2-(2-(1H-1,2,4-triazol-1-yl)ethoxy)phenylamino)benzoate]: the figures for the IC50 in experiment [1] and in experiment [2] (setting [3]) were 50.3 µM and 23.9 µM, respectively.

Turning to `COc1ccc(CNc2cccc(Nc3ccccc3)c2OCCN(C)C)cc1` [SS20308-0052-01, 2-(2-(dimethylamino)ethoxy)-N^1-(4-methoxybenzyl)-N^3-phenylbenzene-1,3-diamine], the values for the IC50 in experiment [1] and in experiment [2] (setting [3]) were 1.32 µM and 0.62 µM, respectively.

On to `COc1ccc(CNc2ccc3c(-c4ccccc4)cc(=O)[nH]c3c2OCCN(C)C)cc1` [SS20308-0053-01, 8-(2-(dimethylamino)ethoxy)-7-((4-methoxybenzyl)amino)-4-phenylquinolin-2(1H)-one], for which the IC50 in experiment [1] came out at 3.36 µM; in experiment [2] (setting [3]), 5.2 µM.

As for `CCOC(=O)c1ccc(Nc2cccc(Nc3ccccc3)c2OCCn2cncn2)cc1` [SS20308-0055-01, ethyl 4-(2-(2-(1H-1,2,4-triazol-1-yl)ethoxy)-3-(phenylamino)phenylamino)benzoate], the values for the IC50 in experiment [1] and in experiment [2] (setting [3]) were 3.33 µM and 1.64 µM, respectively.

With `CN(C)CCOc1c(NCc2ccccc2)cccc1Nc1ncccc1Cl` [SS20308-0071-01, N^1-benzyl-N^3-(3-chloropyridin-2-yl)-2-(2-(dimethylamino)ethoxy)benzene-1,3-diamine], the IC50 in experiment [1] turned out to be 5.73 µM; in experiment [2] (setting [3]) it was 4.9 µM.

For `CN(C)CCOc1c(Nc2ccccc2)ccc2c(-c3ccccc3)cc(=O)[nH]c12` [SS20308-0072-01, 8-(2-(dimethylamino)ethoxy)-4-phenyl-7-(phenylamino)quinolin-2(1H)-one], the IC50 in experiment [1] worked out at 7.23 µM; in experiment [2] (setting [3]), 3.37 µM.

In the case of `c1ccc(Nc2ccc(-c3ccccc3)c(NCCn3cncn3)c2)cc1` [SS20308-0095-01, N^2-(2-(1H-1,2,4-triazol-1-yl)ethyl)-N^4-phenylbiphenyl-2,4-diamine], the IC50 was determined as 0.35 µM in experiment [1] and 0.18 µM in experiment [2].

Turning to `c1ccc(CNc2ccc(-c3ccccc3)c(NCCn3cncn3)c2)cc1` [SS20308-0096-01, N^2-(2-(1H-1,2,4-triazol-1-yl)ethyl)-N^4-benzyl-[1,1′-biphenyl]-2,4-diamine], the IC50 was 0.55 µM in experiment [1] and 0.24 µM in experiment [2] (setting [3]).

For `CN(C)CCNc1cc(Nc2ccccc2)ccc1-c1ccccc1` [SS20308-0130-01, N2-(2-(dimethylamino)ethyl)-N4-phenyl-[1,1′-biphenyl]-2,4-diamine], the IC50 in experiment [1] came to 0.24 µM; in experiment [2] (setting [3]) it was 0.25 µM.

`CN(CCn1cncn1)c1cc(Nc2ccccc2)ccc1-c1ccccc1` [SS20308-0131-01, N2-(2-(1H-1,2,4-triazol-1-yl)ethyl)-N2-methyl-N4-phenyl-[1,1′-biphenyl]-2,4-diamine]: the IC50 in experiment [1] is 0.25 µM.

As to `c1ccc(Nc2ccc(-c3ccccc3)c(OCCn3cncn3)c2)cc1` [SS20308-0132-01, 2-(2-(1H-1,2,4-triazol-1-yl)ethoxy)-N-phenyl-[1,1′-biphenyl]-4-amine], the IC50 turned out to be 0.6 µM in experiment [1] and 0.49 µM in experiment [2].

`Cc1cccc(C)c1-c1ccc(Nc2ccccc2)cc1NCCn1cncn1` [SS20308-0133-01, N2-(2-(1H-1,2,4-triazol-1-yl)ethyl)-2′,6′-dimethyl-N4-phenyl-[1,1′-biphenyl]-2,4-diamine]: the IC50 in experiment [1] was 0.22 µM; in experiment [2] (setting [3]) it was 0.14 µM.

Consider `O=C(CCn1cncn1)Nc1cc(Nc2ccccc2)ccc1-c1ccccc1` [SS20308-0134-01, N-(4-(phenylamino)-[1,1′-biphenyl]-2-yl)-3-(1H-1,2,4-triazol-1-yl)propanamide], for which the IC50 in experiment [1] worked out at 2.32 µM; in experiment [2] (setting [3]) it was 1.49 µM.

Consider `O=C(Nc1ccc(-c2ccccc2)c(NCCn2cncn2)c1)c1ccccc1` [SS20308-0135-01, N-(2-((2-(1H-1,2,4-triazol-1-yl)ethyl)amino)-[1,1′-biphenyl]-4-yl)benzamide], for which the values for the IC50 in experiment [1] and in experiment [2] (setting [3]) were 25.7 µM and 20.8 µM, respectively.

Turning to `Fc1ccc(Nc2ccc(-c3ccccc3)c(NCCn3cncn3)c2)cc1` [SS20308-0142-01, N^2-(2-(1H-1,2,4-triazol-1-yl)ethyl)-N^4-(4-fluorophenyl)biphenyl-2,4-diamine], the IC50 is 0.18 µM and 0.34 µM in experiment [1]; 0.09 µM and 0.17 µM in experiment [2] (setting [3]).

On to `OCc1ccccc1-c1ccc(Nc2ccccc2)cc1NCCn1cncn1` [SS20308-0143-01, (2′-(2-(1H-1,2,4-triazol-1-yl)ethylamino)-4′-(phenylamino)biphenyl-2-yl)methanol], for which the figures for the IC50 in experiment [1] and in experiment [2] (setting [3]) were 0.94 µM and 0.33 µM, respectively.

Take `COc1ccccc1-c1ccc(Nc2ccccc2)cc1NCCn1cncn1` [SS20308-0144-01, N^2-(2-(1H-1,2,4-triazol-1-yl)ethyl)-2′-methoxy-N^4-phenylbiphenyl-2,4-diamine]: the results for the IC50 in experiment [1] and in experiment [2] (setting [3]) were 0.4 µM and 0.18 µM, respectively.

In the case of `c1ccc(CNc2ccc(NCCn3cncn3)c(-c3ccccc3)c2)cc1` [SS20308-0145-01, N^2-(2-(1H-1,2,4-triazol-1-yl)ethyl)-N^5-benzyl-[1,1′-biphenyl]-2,5-diamine], the IC50 in experiment [1] was 30 nM and 50 nM (2×); in experiment [2] (setting [3]), 0.02 µM.

In the case of `O=C(Nc1ccc(NCCn2cncn2)c(-c2ccccc2)c1)c1ccccc1` [SS20308-0146-01, N-(6-((2-(1H-1,2,4-triazol-1-yl)ethyl)amino)-[1,1′-biphenyl]-3-yl)benzamide], the IC50 was determined as 3.77 µM in experiment [1] and 4.02 µM in experiment [2] (setting [3]).

Take `Clc1ccc(-c2ccc(Nc3ccccc3)cc2NCCn2cncn2)cc1` [SS20308-0147-01, N^2-(2-(1H-1,2,4-triazol-1-yl)ethyl)-4′-chloro-N^4-phenylbiphenyl-2,4-diamine]: the IC50 stood at 0.17 µM in experiment [1] and 0.14 µM in experiment [2] (setting [3]).

As to `Fc1c(Nc2ccccc2)ccc(-c2ccccc2)c1NCCn1cncn1` [SS20308-0148-01, N^2-(2-(1H-1,2,4-triazol-1-yl)ethyl)-3-fluoro-N^4-phenylbiphenyl-2,4-diamine], the IC50 in experiment [1] is 3.77 µM and 0.76 µM.

Turning to `Cc1cc(Nc2ccc(F)cc2Cl)ccc1NCC1(CN2CCCC2)COC1` [SS20308-0310-01, N^4-(2-chloro-4-fluorophenyl)-2-methyl-N^1-((3-(pyrrolidin-1-ylmethyl)oxetan-3-yl)methyl)benzene-1,4-diamine], the IC50 in experiment [1] is 0.11 µM and 0.14 µM and 0.1 µM and 0.19 µM and 0.29 µM.

The IC50 is the point on the concentration scale where inhibition reaches its midpoint.
